Our source for the Ki values is ChEMBL document CHEMBL1132332, “A novel acetylated analogue of dynorphin A-(1-11) amide as a kappa-opioid receptor antagonist” (J Med Chem, 1999).

The target of assay [1] is Kappa-type opioid receptor (Homo sapiens, UniProt P41145). Kind of assay: The compound was tested for binding affinity against Opioid receptor kappa 1 by using [3H]Diprenorphine as a radioligand.
Assay [2] has as its target Delta-type opioid receptor (Homo sapiens, UniProt P41143). The assay can be described thus: The compound was tested for binding affinity against Opioid receptor delta 1 by using [3H]- DPDPE as a radioligand.
The next assay has as its target Mu-type opioid receptor (Homo sapiens, UniProt P35372). The assay can be described thus: The compound was tested for binding affinity against Opioid receptor mu 1 by using [3H]DAMGO as a radioligand.

The structures appear in SMILES notation. pKi: −log10 of the molar value. Square brackets hold non-standard residues; d marks the D form. Peptide text beside a SMILES is read from it.

Mu-type opioid receptor, sequence (P35372 whole entry): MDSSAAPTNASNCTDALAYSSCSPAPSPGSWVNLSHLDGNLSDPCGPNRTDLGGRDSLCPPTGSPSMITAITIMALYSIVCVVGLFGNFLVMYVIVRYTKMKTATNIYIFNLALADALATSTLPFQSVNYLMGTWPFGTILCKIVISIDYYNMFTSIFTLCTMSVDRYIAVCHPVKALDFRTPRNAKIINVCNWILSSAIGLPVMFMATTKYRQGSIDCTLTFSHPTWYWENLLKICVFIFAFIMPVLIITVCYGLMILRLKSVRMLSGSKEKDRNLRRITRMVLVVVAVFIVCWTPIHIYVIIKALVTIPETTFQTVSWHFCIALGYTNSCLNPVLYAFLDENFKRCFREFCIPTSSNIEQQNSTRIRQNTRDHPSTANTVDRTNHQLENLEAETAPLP
Kappa-type opioid receptor, sequence (P41145 whole entry): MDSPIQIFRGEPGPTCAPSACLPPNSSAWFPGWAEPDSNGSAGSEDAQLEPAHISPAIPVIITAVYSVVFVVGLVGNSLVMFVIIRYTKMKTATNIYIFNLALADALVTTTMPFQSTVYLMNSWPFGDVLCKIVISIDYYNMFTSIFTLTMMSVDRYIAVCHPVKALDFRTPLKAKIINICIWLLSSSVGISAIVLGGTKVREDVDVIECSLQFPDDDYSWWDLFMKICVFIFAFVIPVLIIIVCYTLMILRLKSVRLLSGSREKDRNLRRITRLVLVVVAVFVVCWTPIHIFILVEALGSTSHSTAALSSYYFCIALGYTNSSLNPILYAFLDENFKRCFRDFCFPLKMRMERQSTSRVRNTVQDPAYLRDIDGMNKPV
Delta-type opioid receptor, sequence (P41143 whole entry): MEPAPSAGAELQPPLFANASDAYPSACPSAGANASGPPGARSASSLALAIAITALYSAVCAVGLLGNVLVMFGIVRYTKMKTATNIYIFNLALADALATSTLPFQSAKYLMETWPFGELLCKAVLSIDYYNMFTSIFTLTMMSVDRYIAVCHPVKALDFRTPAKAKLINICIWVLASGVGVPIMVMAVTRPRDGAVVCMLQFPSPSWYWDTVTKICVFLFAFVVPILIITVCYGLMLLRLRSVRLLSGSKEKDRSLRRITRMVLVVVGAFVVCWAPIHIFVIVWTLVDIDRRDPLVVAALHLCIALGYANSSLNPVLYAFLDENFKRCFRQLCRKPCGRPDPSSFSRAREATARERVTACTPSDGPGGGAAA

Turning to `CC(C)C[C@H](NC(=O)[C@H](Cc1ccccc1)NC(=O)CNC(=O)CNC(=O)[C@@H](N)Cc1ccc(O)cc1)C(=O)N[C@@H](CCCN=C(N)N)C(=O)N[C@@H](CCCN=C(N)N)C(=O)N[C@H](C)C(=O)N[C@@H](CCCN=C(N)N)C(=O)N1CCC[C@H]1C(=O)N[C@@H](CCCCN)C(N)=O`, the pKi (in general, the negative decadic logarithm of the Ki, by convention in mol/L) was 9.72 in assay [1], 7.91 in assay [2] and 8.71 on Mu-type opioid receptor.
For the molecule `CC(=O)N[C@@H](Cc1ccc(O)cc1)C(=O)N[C@@H](CCCCN)C(=O)N[C@@H](Cc1c[nH]c2ccccc12)C(=O)N[C@@H](Cc1c[nH]c2ccccc12)C(N)=O` (Ac-YKWW-NH2), the pKi in assay [1] is 5.86; in assay [2] it was 5.46; at Mu-type opioid receptor, 5.44.
On to `CC(=O)N[C@@H](Cc1ccc(O)cc1)C(=O)N[C@@H](CCCCN)C(=O)N[C@@H](Cc1c[nH]c2ccccc12)C(=O)N[C@@H](Cc1c[nH]c2ccccc12)C(=O)N[C@@H](CC(C)C)C(=O)N[C@@H](CCCN=C(N)N)C(=O)N[C@@H](CCCN=C(N)N)C(=O)N[C@H](C)C(=O)N[C@@H](CCCN=C(N)N)C(=O)N1CCC[C@H]1C(=O)N[C@@H](CCCCN)C(N)=O` (Ac-YKWWLRR[dA]RPK-NH2), for which the values for the pKi (in assay [1]; in assay [2]; on Mu-type opioid receptor) were 7.70, 5.27 and 6.60, respectively.
